# In publication PMC4965013, “Open Source Drug Discovery with the Malaria Box Compound Collection for Neglected Diseases and Beyond” (PLoS Pathogens, 2016):
# pEC50: −log10 of the molar value.
# What was measured:
# P. falciparum = test: EC50 listed in S2 Table Metabolomics (used to set the concentration tested); assay type: cell-based; details: Plasmodium falciparum; EC50 used for Factor_XEC50 in metabolomics; read-out: EC50_nM
# [1] = tested on: P. falciparum 3D7 trophozoites; test: Metabolomic fingerprint profiling LC-MS; assay type: cell-based, Plasmodium falciparum; parameters: UDP-D-glucose / ADP-D-glucose: unit not given here; details: for Acetyllysine / N-acetyl-L-ornithine / N-carbamoyl-L-aspartate / NADPH / dAMP / dCMP / dTDP / dTMP / dTTP / dihydroorotate / orotate / DLH / DLS/SDL/SID / PD / PEE / PVNF / 3-phosphoglycerate / ADP-D-glucose / ATP / CDP / D-sedoheptulose-1/7-phosphate / FAD / GMP / NAD+ / NADP+ / Octoluse Bisphosphate / Pyroglutamic acid / UDP-D-glucose / UDP-D-glucuronate / UDP-N-acetyl-glucosamine / UDP / UMP / UTP / a-ketoglutarate / citrate/isocitrate / cytidine / dATP / dGMP/AMP / fumarate / glucose-1/6-phosphate / glycerate / guanine / guanosine / hypoxanthine / indole / inosine / nicotinate / ornithine / phosphoenolpyruvate / pyruvate / ribose-phosphate / sarcosine/alanine / sn-glycerol-3-phosphate / succinate/methylmalonic acid / uridine / xanthosine: S2 Table Metabolomics; for Acetyllysine: metabolite Acetyllysine; for N-acetyl-L-ornithine: metabolite N-acetyl-L-ornithine; for N-carbamoyl-L-aspartate: metabolite N-carbamoyl-L-aspartate; for NADPH: metabolite NADPH; for dAMP: metabolite dAMP; for dCMP: metabolite dCMP; for dTDP: metabolite dTDP; for dTMP: metabolite dTMP; for dTTP: metabolite dTTP; for dihydroorotate: metabolite dihydroorotate; for orotate: metabolite orotate; for DLH: peptide DLH; for DLS/SDL/SID: peptide DLS/SDL/SID; for PD: peptide PD; for PEE: peptide PEE; for PVNF: peptide PVNF; for 3-phosphoglycerate: metabolite 3-phosphoglycerate; for ADP-D-glucose: metabolite ADP-D-glucose; for ATP: metabolite ATP; for CDP: metabolite CDP; for CDP / D-sedoheptulose-1/7-phosphate / GMP / Octoluse Bisphosphate / UDP / UMP / UTP / citrate/isocitrate / dGMP/AMP / fumarate / glucose-1/6-phosphate / glycerate / guanine / guanosine / inosine / pyruvate / sarcosine/alanine / succinate/methylmalonic acid / uridine / xanthosine: change in metabolite level after compound treatment; for D-sedoheptulose-1/7-phosphate: metabolite D-sedoheptulose-1/7-phosphate; for FAD: metabolite FAD; for GMP: metabolite GMP; for NAD+: metabolite NAD+; for NADP+: metabolite NADP+; for Octoluse Bisphosphate: metabolite Octoluse Bisphosphate; for Pyroglutamic acid: metabolite Pyroglutamic acid; for UDP-D-glucose: metabolite UDP-D-glucose; for UDP-D-glucuronate: metabolite UDP-D-glucuronate; for UDP-N-acetyl-glucosamine: metabolite UDP-N-acetyl-glucosamine; for UDP: metabolite UDP; for UMP: metabolite UMP; for UTP: metabolite UTP; for a-ketoglutarate: metabolite a-ketoglutarate; for citrate/isocitrate: metabolite citrate/isocitrate; for cytidine: metabolite cytidine; for dATP: metabolite dATP; for dGMP/AMP: metabolite dGMP/AMP; for fumarate: metabolite fumarate; for glucose-1/6-phosphate: metabolite glucose-1/6-phosphate; for glycerate: metabolite glycerate; for guanine: metabolite guanine; for guanosine: metabolite guanosine; for hypoxanthine: metabolite hypoxanthine; for indole: metabolite indole; for inosine: metabolite inosine; for 2_3-Diphosphoglyceric acid / 4-phosphopantothenate / 6-phospho-D-gluconate / FMN / IMP / Pyrophosphate / Sedoheptoluse bisphosphate / cyclic-AMP / glutathione disulfide / lactate / myo-inositol: metabolite level change after treatment; for nicotinate: metabolite nicotinate; for ornithine: metabolite ornithine; for phosphoenolpyruvate: metabolite phosphoenolpyruvate; for pyruvate: metabolite pyruvate; for ribose-phosphate: metabolite ribose-phosphate; for sarcosine/alanine: metabolite sarcosine/alanine; for sn-glycerol-3-phosphate: metabolite sn-glycerol-3-phosphate; for succinate/methylmalonic acid: metabolite succinate/methylmalonic acid; for uridine: metabolite uridine; for xanthosine: metabolite xanthosine
structure (smiles),measurement,setting,value
Fc1ccc2[nH]c3c(NCCCN4CCOCC4)ncnc3c2c1 [MMV019871],pEC50,P. falciparum,6.46
same,Acetyllysine,[1],-0.8876
same,N-acetyl-L-ornithine,[1],-0.1209
same,N-carbamoyl-L-aspartate,[1],0.08503
same,NADPH,[1],0.6093
same,dAMP,[1],0.6696
same,dCMP,[1],-0.1368
same,dTDP,[1],0.799
same,dTMP,[1],0.8196
same,dTTP,[1],0.3182
same,dihydroorotate,[1],0.6163
same,orotate,[1],0.06699
same,DLH,[1],-1.437
same,DLS/SDL/SID,[1],-0.7695
same,PD,[1],-0.933
same,PEE,[1],-0.4641
same,PVNF,[1],-1.358
same,3-phosphoglycerate,[1],-0.4045
same,ADP-D-glucose,[1],-0.2501
same,ATP,[1],-0.2422
same,CDP,[1],0.8712
same,D-sedoheptulose-1/7-phosphate,[1],0.6203
same,FAD,[1],-0.1788
same,GMP,[1],0.008366
same,NAD+,[1],-0.1288
same,NADP+,[1],-0.2271
same,Octoluse Bisphosphate,[1],-0.5075
same,Pyroglutamic acid,[1],0.06535
same,UDP-D-glucose,[1],-0.1274
same,UDP-D-glucuronate,[1],-0.1958
same,UDP-N-acetyl-glucosamine,[1],-0.09954
same,UDP,[1],0.8844
same,UMP,[1],-0.5999
same,UTP,[1],-0.2069
same,a-ketoglutarate,[1],-0.1645
same,citrate/isocitrate,[1],-0.2521
same,cytidine,[1],-0.343
same,dATP,[1],-0.2053
same,dGMP/AMP,[1],0.4546
same,fumarate,[1],-0.6533
same,glucose-1/6-phosphate,[1],-0.1277
same,glycerate,[1],-0.2409
same,guanine,[1],0.2236
same,guanosine,[1],0.1132
same,hypoxanthine,[1],0.02159
same,indole,[1],-0.3008
same,inosine,[1],0.02443
same,2_3-Diphosphoglyceric acid,[1],-0.241
same,4-phosphopantothenate,[1],-0.03538
same,6-phospho-D-gluconate,[1],-0.1618
same,FMN,[1],0.07605
same,IMP,[1],0.1512
same,Pyrophosphate,[1],-0.1841
same,Sedoheptoluse bisphosphate,[1],-0.3231
same,cyclic-AMP,[1],-0.2059
same,glutathione disulfide,[1],-0.2521
same,lactate,[1],0.01945
same,myo-inositol,[1],0.08413
same,nicotinate,[1],0.1601
same,ornithine,[1],0.04638
same,phosphoenolpyruvate,[1],-0.3024
same,pyruvate,[1],0.2194
same,ribose-phosphate,[1],-0.9686
same,sarcosine/alanine,[1],-0.2747
same,sn-glycerol-3-phosphate,[1],-0.2288
same,succinate/methylmalonic acid,[1],-0.1938
same,uridine,[1],0.09395
same,xanthosine,[1],-0.4756
Cc1ccc(-c2cc3nc4c(c(O)n3n2)CCCC4)cc1 [MMV006937],pEC50,P. falciparum,6.40
same,Acetyllysine,[1],0.001543
same,N-acetyl-L-ornithine,[1],-0.1685
same,N-carbamoyl-L-aspartate,[1],1.991
same,NADPH,[1],-0.4265
same,dAMP,[1],-0.0863
same,dCMP,[1],-1.279
same,dTDP,[1],-1.586
same,dTMP,[1],-1.181
same,dTTP,[1],-2.058
same,dihydroorotate,[1],2.759
same,orotate,[1],-1.871
same,DLH,[1],-0.331
same,DLS/SDL/SID,[1],-0.7353
same,PD,[1],0.3712
same,PEE,[1],-0.2807
same,PVNF,[1],-1.612
same,3-phosphoglycerate,[1],-0.6487
same,ADP-D-glucose,[1],-0.1406
same,ATP,[1],-0.4135
same,CDP,[1],-1.006
same,D-sedoheptulose-1/7-phosphate,[1],0.1087
same,FAD,[1],0.1332
same,GMP,[1],-0.07362
same,NAD+,[1],1.3162
same,NADP+,[1],-0.2641
same,Octoluse Bisphosphate,[1],-0.3
same,Pyroglutamic acid,[1],-0.3275
same,UDP-D-glucose,[1],-0.04224
same,UDP-D-glucuronate,[1],-0.6063
same,UDP-N-acetyl-glucosamine,[1],-0.2962
same,UDP,[1],-1.454
same,UMP,[1],-1.3
same,UTP,[1],-2.161
same,a-ketoglutarate,[1],-0.5175
same,citrate/isocitrate,[1],-0.9752
same,cytidine,[1],0.2747
same,dATP,[1],0.08499
same,dGMP/AMP,[1],-0.2088
same,fumarate,[1],0.7624
same,glucose-1/6-phosphate,[1],-0.09446
same,glycerate,[1],0.7002
same,guanine,[1],0.3064
same,guanosine,[1],0.2389
same,hypoxanthine,[1],-0.05386
same,indole,[1],-0.1272
same,inosine,[1],-0.07571
same,2_3-Diphosphoglyceric acid,[1],-0.6436
same,4-phosphopantothenate,[1],-0.3901
same,6-phospho-D-gluconate,[1],-0.1214
same,FMN,[1],-0.5746
same,IMP,[1],0.1416
same,Pyrophosphate,[1],-0.6696
same,Sedoheptoluse bisphosphate,[1],0.01407
same,cyclic-AMP,[1],-0.2332
same,glutathione disulfide,[1],0.02779
same,lactate,[1],-0.3487
same,myo-inositol,[1],0.03438
same,nicotinate,[1],-0.2273
same,ornithine,[1],-0.08655
same,phosphoenolpyruvate,[1],-0.5043
same,pyruvate,[1],-0.2395
same,ribose-phosphate,[1],0.1461
same,sarcosine/alanine,[1],0.1551
same,sn-glycerol-3-phosphate,[1],-0.1355
same,succinate/methylmalonic acid,[1],-0.2134
same,uridine,[1],-0.8059
same,xanthosine,[1],-0.1801
COc1ccc2c(=O)cc(C(Cl)(Cl)Cl)oc2c1 [MMV665820],pEC50,P. falciparum,6.28
same,Acetyllysine,[1],-2.345
same,N-acetyl-L-ornithine,[1],-3.277
same,N-carbamoyl-L-aspartate,[1],-3.842
same,NADPH,[1],-0.2986
same,dAMP,[1],-0.8398
same,dCMP,[1],-0.0001746
same,dTDP,[1],-1.2684
same,dTMP,[1],-0.5586
same,dTTP,[1],-2.5615
same,dihydroorotate,[1],-2.921
same,orotate,[1],-2.382
same,DLH,[1],-2.464
same,DLS/SDL/SID,[1],-1.694
same,PD,[1],-4.28
same,PEE,[1],-1.0444
same,PVNF,[1],-2.464
same,3-phosphoglycerate,[1],-2.392
same,ADP-D-glucose,[1],-0.3227
same,ATP,[1],-1.288
same,CDP,[1],-0.9038
same,D-sedoheptulose-1/7-phosphate,[1],0.5405
same,FAD,[1],-1.407
same,GMP,[1],-1.717
same,NAD+,[1],-0.3778
same,NADP+,[1],-0.008784
same,Octoluse Bisphosphate,[1],-4.199
same,Pyroglutamic acid,[1],0.4738
same,UDP-D-glucose,[1],-0.2217
same,UDP-D-glucuronate,[1],-0.02834
same,UDP-N-acetyl-glucosamine,[1],-0.2815
same,UDP,[1],-0.477
same,UMP,[1],-2.629
same,UTP,[1],-1.869
same,a-ketoglutarate,[1],0.2276
same,citrate/isocitrate,[1],-0.6427
same,cytidine,[1],-0.5777
same,dATP,[1],-2.2274
same,dGMP/AMP,[1],0.08346
same,fumarate,[1],-2.544
same,glucose-1/6-phosphate,[1],-2.012
same,glycerate,[1],-1.622
same,guanine,[1],-1.809
same,guanosine,[1],-1.332
same,hypoxanthine,[1],0.4621
same,indole,[1],0.006213
same,inosine,[1],-2.706
same,2_3-Diphosphoglyceric acid,[1],-2.758
same,4-phosphopantothenate,[1],-2.584
same,6-phospho-D-gluconate,[1],-2.402
same,FMN,[1],-1.9
same,IMP,[1],-1.4619
same,Pyrophosphate,[1],-2.687
same,Sedoheptoluse bisphosphate,[1],-3.03
same,cyclic-AMP,[1],-3.2218
same,glutathione disulfide,[1],-1.807
same,lactate,[1],-6.313
same,myo-inositol,[1],-0.0001746
same,nicotinate,[1],-0.2855
same,ornithine,[1],0.1501
same,phosphoenolpyruvate,[1],-1.494
same,pyruvate,[1],-2.492
same,ribose-phosphate,[1],-0.0001746
same,sarcosine/alanine,[1],-2.81
same,sn-glycerol-3-phosphate,[1],-1.932
same,succinate/methylmalonic acid,[1],-1.8645
same,uridine,[1],-1.942
same,xanthosine,[1],-0.05367
